Patent US5556744A, “Methods and compositions for diagnosing and treating certain HIV infected patients” (The Trustees of the University of Pennsylvania, priority 1994, dated 1996)
“Also recorded” adds a separate entry of the source.

Test system: maternal serum samples (antibodies)
Assay: ELISA peptide-binding of maternal sera, expanded peptide collection (Example 5)
Parameters: species or system human
Source text: The gp120 and gp41 peptides used in this experiment include peptides 60 [SEQ ID NO:9], 93 [SEQ ID NO:10], 94 [SEQ ID NO:1], 95 [SEQ ID NO:11], 96 [SEQ ID NO:12], 97 [SEQ ID NO:13], 59 [SEQ ID NO:14], 106 [SEQ ID NO:15], 107 [SEQ ID NO:[…]], 1029/33 [SEQ ID NO:2], p18p [SEQ ID NO:17], B138 [SEQ ID NO:3], 466 [SEQ ID NO:4], 497 [SEQ ID NO:18], 117 [SEQ ID NO:19], F560 [SEQ ID NO:20], 35 [SEQ ID NO:5], 120 [SEQ ID NO:21], 121 [SEQ ID NO:22], 123 [SEQ ID NO:23], 36 [SEQ ID NO:24], 40 [SEQ ID NO:25], 41 [SEQ ID NO:26], 649 [SEQ ID NO:6], 53 [SEQ ID NO:7], 55 [SEQ ID NO:27], 128 [SEQ ID NO:28], 129 [SEQ ID NO:29], 132 [SEQ ID NO:30], 57 [SEQ ID NO:8], and 1103/55 [SEQ ID NO:31] from Table 2. These peptides were synthesized based on the same HIV IIIB isolate as were the peptides of Table 2. Alternative designations for these peptides are provided in brackets.
Each of the peptides was at least 85% pure, making them suitable for ELISA analyses. The average length of these peptides was 18 amino acid residues, which allows for a certain degree of local flexibility and conformational folding, thus facilitating detection of antibody species with reactivities to shaped structures.
The maternal serum samples were obtained from the Mothers/Infants Cohort Study described in Example 1. For the ELISA peptide-binding analyses performed essentially as described in Example 3, maternal serum samples were diluted to 1:50 or 1:500 with blocking buffer (1% bovine serum albumin in phosphate-buffered saline containing 0.05% Tween 20). Binding was measured using 10 μg/mL peptide per well and was considered positive if the experimental/control OD450nm ratio was ≥2. Normal (HIV seronegative) human sera were used as controls.

LGIWGCSGKLIC [Peptide 41-2]
Binding / reactivity of maternal sera to peptide (in words) (Example 5): Virtually all samples reacted; also recorded: recognized by the transmission group
Percent of both groups that bound to the peptide (transmission and non-transmission groups): 90%
